Entries after “also recorded” stand apart in the source; their conditions may differ. Blank lines part the entries; values can stand above or below the molecule they belong to.
Legend:
[1] = test system: RC010 (iPS cell line); assay: ALA-PDT on iPS cell line RC010, cell survival by CCK8 (Example 2); format: cell-based, human; settings: ALA hydrochloride 125-1000 micro-M, 4 or 24 hours, red LED 10 minutes, cell wraps r11-r13: SURVIVAL/PROLIFERATION SUPPRESSION
Description: (§1) As pluripotent stem cell lines, separately, for 201B7 cell line, which is equivalent as above-mentioned Example 1, and for RC001 and RC010 (ReproCELL Inc.), after maintaining as like above-mentioned Example 1, evaluations of the ALA effects were performed.
(§2) Then, each of them was cultivated with culture medium added ALA hydrochloride having concentration (0, 125, 250, 500, 1000 micro-M), respectively.

[2] = test system: hepatic cell originated from human iPS cell; assay: Evaluation of effect of ALA-PDT for hepatic cells of iPS cell origin; format: cell-based
Description: The effect by ALA-PDT was evaluated for a hepatic cell originated from human iPS cell equivalent to the above-mentioned Example 1. At this example, the culture condition was plating 500,000 cells per well in a 24-well plate, then each concentration (0, 250, 500 micro-M) of ALA hydrochloride was added to the cell on the seventh day, photoirradiation was performed for 10 minutes by red LED 24 hours afterward, then form observation was carried out on the next day and after. The irradiation power of red LED was the same as that of above-mentioned case.

[3] = test system: iPS cell (cell line 201B7); assay: Comparison of effects by wavelength of photoirradiation of ALA-PDT for iPS cell; format: cell-based, human; settings: ALA 100 or 1000 micro-M for 4 hours, red or blue LED 10 minutes, 24 hours afterward
Description: Then, the effect by the difference of the wavelength in the photoirradiation of ALA-PDT for a human iPS cell was compared.
Then, the cultured iPS cell was irradiated with red LED (wavelength of 635 nm) or blue LED (wavelength of 405 nm) for 10 minutes, and the cell form was observed 24 hours afterward.
Culture conditions were: used cell line: 201B7 and used culture-medium: Primate ES Cell Medium.

[4] = test system: iPS cell (cell line 201B7); assay: Evaluation of effects of ALA-PDT for iPS cell (cell form, ALP expression); format: cell-based, human; settings: ALA 1000 micro-M and/or SFC 500 micro-M for 48 hours, blue LED 10 minutes, 24 hours afterward; Blue Alkaline Phosphatase Substrate Kit III
[5] = test system: iPS cell (cell line 201B7); assay: Evaluation of effects of ALA and/or SFC for iPS cell without photoirradiation (cell form); format: cell-based, human; settings: ALA 1000 micro-M; observed 0, 4, 24, 48 hours after addition; no PDT
Excerpt: As a pluripotent stem cell line, a human iPS cell line (iPSC) established at ReproCELL Inc. and subcultured 50 times was used. For on-feeder cultivation, the cell line of the pluripotent stem cell was maintained on mouse embryonic fibroblast (MEF) feeder cell (RCHEFC003, ReproCELL Inc.) processed by mitomycin C in a 60-mm polystyrene plate (dish) coated by ReproCoat (ReproCELL Inc.) with culture medium for pluripotent stem cells (Primate ES cell medium, RCHEMD001, ReproCELL Inc.) as like the conventional technique. ReproCoat was coated by using on a plate at the concentration of 0.2 micro-g/cm^2 and allowing to keep it at 4 degree-Celsius, overnight.
34 mg of ALA hydrochloride (M. W.=167.6, SBI Pharmaceuticals Co., Ltd.) was weighed, and 1000 micro-L of PBS (−) (Wako Pure Chemical Industries Ltd.) were added. Thereby, 200 mM ALA solution was prepared. The solution of the prepared ALA hydrochloride (hereinafter, it is only called as “ALA solution”) was stored on a freezer at −20 degree-C until use.

[6] = test system: human iPS cell; assay: Comparison of effects by ALA concentration of ALA-PDT for iPS cell (CCK8); format: cell-based
Description: Then, in ALA-PDT for the human iPS cell, the effects for changing the concentration of ALA were compared.
(§3) The iPS cell performed the passage process as well as an above-mentioned process was incubated for 2 to 4 minutes by using CTK (collagenase trypsin KSR) in 37 degree-C and then separated by pipetting.

[7] = test system: normal human dermal fibroblast (HDF); assay: Comparison of effects by ALA concentration of ALA-PDT for HDF (CCK8); format: cell-based; settings: ALA 0-1000 micro-M, 4 hours, red LED 10 minutes, CCK8 24 hours afterward
Description: Also, the commercial normal human dermal fibroblast (CA106K05a, Cell Applications Inc., HDF) was used for comparative example(s).
as §3
About a normal human dermal fibroblast (HDF), based on the equivalent conditions as above-mentioned “comparison of effects by ALA hydrochloride concentration and photoirradiation of ALA-PDT for iPS cell”, the effects of the ALA concentration and ALA-PDT were compared.

[8] = test system: 201B7 cell line (iPS cell); assay: ALA-PDT on iPS cell line 201B7, cell survival by CCK8 (Example 2); settings: for rate of cell survival as compared with the control: 201B7
[9] = test system: RC001 (iPS cell line); assay: ALA-PDT on iPS cell line RC001, cell survival by CCK8 (Example 2); format: cell-based, human; settings: ALA hydrochloride 125-1000 micro-M, 4 or 24 hours, red LED 10 minutes, cell wraps r8-r10: SURVIVAL/PROLIFERATION SUPPRESSION
Description: as §1, §2

[10] = test system: neuron performed differentiation induction from the human iPS cell (ReproNeuro); assay: Evaluation of effects of ALA-PDT for neuron originated from iPS cell; format: cell-based; settings: red LED 10 minutes
Description: Then, the effects by ALA-PDT for the neuron performed differentiation induction from the human iPS cell (neuron originated from iPS cell) were evaluated. The used neuron was ReproNeuro. […] After that, the cell form was observed. Then, the cultured neuron was irradiated with red LED (wavelength of 635 nm) for 10 minutes, and the cell form was observed after 12-hour progresses (overnight). Then, it was exchanged the culture medium, which ALA was not included, and the cell form was observed after cultivating with exchanging the culture media for seven days.

[11] = 250 micro-M ALA hydrochloride for 24 hours, red LED 10 minutes

protection of hepatic cells from ALA-PDT ([2]; 250 micro-M ALA, preliminary experiment): it was protected
Molecule: NCC(=O)CCC(=O)O [ALA, delta-aminolevulinic acid]
EFFECT BY ALA [1]: Survival and proliferation for each cell line were suppressed
form observation of hepatic cells 24 hours after LED irradiation [2, 11]: the cell with clear cobblestone morphology and nucleus remained
form observation of hepatic cells 48 hours after LED irradiation [2, 11]: the cell with cobblestone morphology and nucleus continued surviving
survival of hepatic cells after ALA-PDT ([2]; ALA hydrochloride 250 and 500 micro-M, red LED 10 minutes, 24 and 60 hours after irradiation): survived under the various conditions of ALA-PDT were present
state of survived hepatic cells, 250 micro-M versus 500 micro-M (visual inspection) ([2]; ALA hydrochloride 250 vs 500 micro-M, red LED 10 minutes): the state of the survived cells under the condition of 250 micro-M were better than that of 500 micro-M
expression of ALP (undifferentiated state) after ALA-PDT, red vs blue LED [3]: it became impossible to maintain the undifferentiated state
undifferentiated state by expression of ALP after ALA-PDT [4]: ALP became negative; also recorded: an undifferentiated iPS cell was no longer observed
influence on the iPS cell (cell form, undifferentiated form) without photoirradiation [5]: influence on the iPS cell was not observed
cell death of the iPS cell by ALA-PDT ([6]; ALA concentration greater than or equal to 250 micro-M, 4 hours after addition red LED 10 minutes, CCK8 24 hours afterward): ≥ 60%
cell death of iPS cell by ALA-PDT ([6]; ALA concentration greater than or equal to about 100 micro-M, other experiment (not shown)): ≥ 10%
induction of cell death of HDF by ALA-PDT (CCK8) [7]: induction of the cell death by ALA-PDT was not observed
rate of cell survival as compared with the control ([8]; 250 micro-M ALA, after-addition time 4 hours, red LED 10 minutes, CCK8): 65%
rate of cell survival as compared with the control ([8]; after-addition time 24 hours, red LED 10 minutes, CCK8): 7%
EFFECT BY ALA ([8]; cell line 201B7, ALA hydrochloride 125-1000 micro-M, 4 or 24 hours, red LED 10 minutes, CCK8, cell wraps r5-r7: SURVIVAL/PROLIFERATION SUPPRESSION): Survival and proliferation for each cell line were suppressed
rate of cell survival with after-addition time longer than 24 hours, compared with 24 hours ([8]; preliminary experiment): there is no change the rate of cell survival
EFFECT BY ALA [9]: Survival and proliferation for each cell line were suppressed
survival of neuron after ALA-PDT ([10]; ALA 250, 500 micro-M for 4 hours, cultivation continued for seven days): continued surviving without extinction and recovered as like the condition before ALA addition
cell adhesion and neural spine seven days after ALA-PDT ([10]; seven days after adding 250 micro-M, 500 micro-M ALA): cell adhesion could be confirmed, and the neural spine was elongating in all of them

Molecule: sodium ferrous citrate [SFC]
undifferentiated state by expression of ALP after ALA-PDT [4]: maintaining the undifferentiated-like state
